Six compounds from ChEMBL document CHEMBL3085770, “The functional group on (E)-4,4'-disubstituted stilbenes influences toxicity and antioxidative activity in differentiated PC-12 cells” (Bioorg Med Chem Lett, 2013) can be followed below.

Calls of active or inactive are those of the source. The rule behind the calls is not given here.

In data set [1] the test system is Radical scavenging activity. Briefly: Antioxidant activity assessed as DPPH free radical scavenging activity over 30 mins by spectrophotometry. The format is functional. (The DPPH test is a chemical assay of radical scavenging.)
Data set [2] in a line: Cytotoxicity against rat differentiated PC12 cells assessed as cell viability at <= 10 ug/ml after 15 hrs by MTS assay. The format is cell-based. As to conditions: pc-12, 15 h.
The test system of a further data set is PC-12. Briefly: Antioxidant activity in rat differentiated PC12 cells assessed as inhibition of H2O2-induced cell death after 15 hrs by MTS assay. Format: functional, cell-based. A general note: Formazan colour is commonly taken as a measure of viable cells.
Data set [3] in a line: Chemical stability of the compound in PBS buffer at 1 ug/ml after 24 hrs by fluorescence assay in presence of 0.3% H2O2. Format: physicochemical.

On to `Nc1ccc(/C=C/c2ccc(N)cc2)cc1`, for which the outcome (in data set [1]; in the data set with PC-12) was Active. The Activity result in data set [2] is “Non-toxic”.

As to `N#Cc1ccc(/C=C/c2ccc(C#N)cc2)cc1`, the Stability entry in data set [3] is “Unstable”. The outcome in data set [1] was inactive. Besides, the Activity result in data set [2] is on record as “Non-toxic”.

Consider `C(=C\c1ccccc1)/c1ccccc1`, for which the result in data set [1] was inactive. In data set [2], the Activity entry is on record as “Non-toxic”.

Take `CC(=O)c1ccc(/C=C/c2ccc(C(C)=O)cc2)cc1`: the Stability entry in data set [3] is recorded as “Unstable”. In data set [1], the result was inactive. Besides, the Activity result in data set [2] was “Non-toxic”.

For the compound `CC(O)c1ccc(/C=C/c2ccc(C(C)O)cc2)cc1` (stereo not given), the result (in data set [1]; in the data set with PC-12) was inactive. For the same compound, in data set [2], the Activity result was “Non-toxic”.

For `Oc1ccc(/C=C/c2ccc(O)cc2)cc1`, the result in the data set on PC-12 was Active.
